Laboratory results as given in patent US20030191144A1, “Compounds, compositions and methods for modulating beta-amyloid production” (Active Pass Pharmaceuticals, Inc., priority 2001, published 2003).

Experiments:
[1] = test system: Aβ40 from human neuroblastoma cells (hDAT; SK-N-MC); experiment: Aβ40 ELISA, human neuroblastoma cells transiently transfected with APPsw; assay type: cell-based; conditions: 200 μM, 24 hours
Experimental: Human neuroblastoma cells (hDAT; SK-N-MC stably overexpression human dopamine transporter) were routinely maintained in DMEM supplemented with sodium pyruvate (1 mM) and 10% fetal bovine serum. […] Subsequently, 48 hours post-transfection the cells were rinsed with PBS and treated with vehicle (0.1% DMSO) or 100-200 μM pirinixic acid in serum free/phenol free DMEM for 24 hours. After the pharmacological treatment, the exposure media was collected and supplemented with 10% sample treatment buffer (40 mM sodium phosphate (pH 7.4), 40 mM triethanolamine, 0.1% Triton X-100, 200 mM NaCl, 2 mM EGTA, 0.1% Sodium azide), and assayed for either Aβ40 or AP42 by a calorimetric ELISA as per the manufacturer's protocol (Biosource International Inc, California). The cells were lysed in 0.1% Triton X-100 in PBS supplemented with 5 μM Propridium Iodide (Molecular probes, Eugene, Oreg.) and incubated at 37° C. for 30 minutes prior to measuring fluorescence. Secreted Aβ40 and Aβ42 levels were standardized against propridium iodide fluorescence as a measure of total cell number. Data are expressed as a percent of control and represent the mean±SD with n=11 and statistical significance determined by ANOVA with a Tukey's post hoc test at ***p<0.001.

[2] = test system: Aβ40 production and/or release from SM-4 cells; experiment: Aβ40 ELISA of culture media from SM-4 cells; assay type: cell-based; conditions: 10-500 μM, 16 hrs
Experimental: Cell Lines and Pharmacological Treatments. 293 EBNA cells (InVitrogen, Carlsbad, Calif.) stably transfected with Swedish mutant β-Amyloid Precursor Protein -695 (SM4 cells) were routinely maintained in DMEM supplemented with sodium pyruvate (1 mM) and 10% fetal bovine serum. Cells were seeded into poly-D-Lysine (SIGMA) coated 6-well plates at a density of 5-7×10^5 cells per well. Subsequently, the cells were rinsed in 1 ml of PBS and treated with 10-500 μM of pirinixic acid in serum-free/phenol red-free DMEM for 16 hours. Aβ Detection and Standardization. After the pharmacological treatment, the exposure media was collected and supplemented with 10% sample treatment buffer (40 mM sodium phosphate (pH 7.4), 40 mM triethanolamine, 0.1% Triton X-100, 200 mM NaCl, 2 mM EGTA, 0.1% Sodium azide), and assayed for either Aβ40 or Aβ42 by a calorimetric ELISA as per the manufacturer's protocol (Biosource International Inc, California). The cells were lysed in 0.1% Triton X-100 in PBS supplemented with 5 μM propridium iodide (Molecular Probes, Eugene, Oreg.) and incubated at 37° C. for 30 minutes prior to measuring fluorescence. Aβ40 and Aβ42 were standardized against propridium iodide fluorescence as a measure of total cell number. 293 EBNA cells (InVitrogen, Carlsbad, Calif.) stably transfected with Swedish mutant β-Amyloid Precursor Protein -695 (SM4 cells) were routinely maintained in DMEM supplemented with sodium pyruvate (1 mM) and 10% fetal bovine serum. […] The cells were lysed in 0.1% Triton X-100 in PBS supplemented with 5 μM propridium iodide (Molecular Probes, Eugene, Oreg.) and incubated at 37° C. for 30 minutes prior to measuring fluorescence. Aβ40 and Aβ42 were standardized against propridium iodide fluorescence as a measure of total cell number. […] The cells were lysed in 0.1% Triton X-100 in PBS supplemented with 5 μM propridium iodide (Molecular Probes, Eugene, Oreg.) and incubated at 37° C. for 30 minutes prior to measuring fluorescence. Aβ40 and Aβ42 were standardized against propridium iodide fluorescence as a measure of total cell number.

SMILES: Cc1cccc(Nc2cc(Cl)nc(SCC(=O)O)n2)c1C [pirinixic acid]
- effect on Aβ40 [1]: without altering Aβ40
- change in Aβ40 production and/or release [2]: no significant change
